# Earlier results as cited in PMC12664280, “Integrative transcriptomics and peptidomics approach reveals unexpectedly diverse endogenous secretory peptides in Odorrana grahami frog skin” (BMC Biology, 2025).
# Bridges are numbered along the chain shown (N, C = ends). Where no end group is shown, it is not given here.
# Tested on: skin wound
# Settings: previously reported ESPs in Odorrana grahami, Table S1; cited from earlier work
# Excerpt: Supplement 12915_2025_2463_MOESM1_ESM.xlsx, sheet "Table S1" | column: Previously reported ESPs in Odorrana grahami || The cathelicidin family: In this study, we report two new ESPs, OG-CATH1 and OG-CATH2, with OG-CATH1 corresponding to two precursor proteins. These peptides are similar to OL-CATH1 and OL-CATH2 from the skin of O. livida, and Cathelicidin-RC1 from frog L. catesbeianus (Fig. S12). However, they show low similarity (20.3%, data not shown) to Cathelicidin-OA1 from the skin of O. andersonii.
row,Substance,Functional effect: wound-healing
1,ATAWDFGPHGLLPIRPIRIRPLCG [odorranain-M1],wound-healing
2,APFRMGICTTN [odorregulin-E1],wound-healing

# Tested on: HaCat cells
# Parameters: method as in PMID 18455266
# Settings: mechanically injured HaCat cells; enhancing the expression of CXCL8, TGFβ, COX-2, VEGF and TLR2; ref [94]; cited from earlier work
row,Substance,In vitro wound healing potential
1,bombesin,in vitro wound healing potential

# Tested on: not given
# Settings: annotation in words; no reference given, so it comes from the DADP database (table note); ref DADP database; cited from earlier work
# Excerpt: Supplement 12915_2025_2463_MOESM1_ESM.xlsx, sheet "Table S8" | column: Functional effect
row,Substance,Functional effect
1,GVLGTVKDLLIGAGKSAAQSTLKTLSCKISNDC [Brevinin-2-OA7],antimicrobial
2,FLPPSPWKETFRTS [Odorranain-S-RA],antimicrobial
3,GLLRASSVWGRKYYVDLAGCAKA [Odorranain-W-RA1],antimicrobial
4,GLFSKFAGKGIVNFLIEGVE [Andersonin-X1],antimicrobial
5,GLLDTFKNMAINAAHGAGVSVLNALSCKLKKTC [Brevinin-2-OA3],antimicrobial
6,GCSRWIIGIHGQICRD [Odorranain-U-RA],antimicrobial
7,GLLSGILGAGKHIVCGLSGLC [Nigrosin-RA2],antimicrobial
8,GLFTLIKGAYKNDAPTVACN [Odorranain-J-OA2],antimicrobial
9,GLFTLIKGAAKLIGKTVAKEAGKTGLELMACKITNQC [Esculentin-2-OA3],antimicrobial
10,FLPKLFAGIISKNF [Andersonin-Y2],antimicrobial
11,GLFSKFAGKGIKDLIFKGVKHIGKEVGMDVIRTGIDVAGCKIKGEC [Esculentin-1-RA8],antimicrobial
12,GILDTFKNMALNAAKSAGVSVLNALSCKLSKTC [Brevinin-2-RA9],antimicrobial
13,GLFSKFAGKGIKNFLIKGVKHIGKEVGMDVIRTGIDVAGCKIKGEC [Esculentin-1-RA5],antimicrobial
14,DANVENGEDAEDLTDKFIGLMG [Andersonin-6],immunomodulating
15,GLLDGILNANFNAAKSAGTSVLNALSCKLSKTC [Brevinin-2-OA5],antimicrobial
16,GLFSKFSGKGIKNFLIKGVKHIGKEVGMDVIRTGIDVAGCKIKGEC [Esculentin-1-OA2],antimicrobial
17,GIFGKILGVGKKTLCELSGMC [Nigrocin-1-OA2],antimicrobial
18,GFMATAKNVAKNMDVTLLDNLKCKITKAC [Odorranain-F-OA4],antimicrobial
19,GFMDTAKNVAKNMAVTLLDNLKCKITKAC [Odorranain-F-RA1],antimicrobial
20,GIFLKVLGVGKKVLCGVSGLC [Nigrocin-1-OA3],antimicrobial
21,AALRGCWTKSIPPKPCSGKR [Odorranain-B-RA1],antimicrobial
22,GFMDTAKNVAKNEAGNLLDNLKCKITKAC [Odorranain-F-OA3],antimicrobial
23,GLLDTFKNMALNAAKSAGVSVLNALSCKLSKTC [Brevinin-2-OA2],antimicrobial

row,Substance,Functional effect
1,AVNIPFKVHFRCKAAFC [Ranatuerin-2R-RA2],antimicrobial
2,GIFTLIKGAAKLIGKTVAKEAGKTGLELMACKITNQC [Esculentin-2-RA2],antimicrobial
3,GLFTLIKGAYKLDAPTVACN [Odorranain-J-OA1],antimicrobial
4,ATNIPFKVHFRCKAAFC [Ranatuerin-2R-RA1],antimicrobial
5,VIPFVASVAAEMMQHVYCAASKKC [Odorranain-P-RA2],antimicrobial
6,GLFSKFAGKGIKNLIFKGVKHIGKEVGMDVIRTGIDVAGCKIKGEC [Esculentin-1-RA7],antimicrobial
7,DCTRWIIGINGRICRD [Nigroain-E-RA],antimicrobial
8,GLLDTFKNLALNAAKSAGVSVLNSLSCKLSKTC [Brevinin-2-RA11],antimicrobial
9,FLPKLFAKITKKNMAHIR [Andersonin-Y1],antimicrobial
10,FLPAVIRVAANVLPTAFCAISKKC [Brevinin-1-RAA10],antimicrobial
11,GLFSKFVGKGIKNFLIKGVKHIGKEVGMDVIRVGIDVAGCKIKGVC [Esculentin-1-OA1],antimicrobial
12,FMPILSCSRFKRC [Odorranain-G-RA2],antimicrobial
13,VIVFVASVAAEMMQHVYCAASKKC [Odorranain-P-RA1],antimicrobial
14,GLLSGVLGVGKKIVCGLSGLC [Nigrosin-RA3],antimicrobial
15,GLLDTFKNLALNAAESAGVSVLNSLSCKLSKTC [Brevinin-2-RA5],antimicrobial
16,GVLATVKNLLNGTGDGAAQSVLKTLSCKLSNDC [Brevinin-2-OA8],antimicrobial
17,GFMDTAKNVAKNMAGNLLDNLKCKITKAC [Odorranain-F-OA1],antimicrobial
18,GLFTKFAGKGIKDLIFKGVKHIGKEVGMDVIRTGIDVAGCKIKGEC [Esculentin-1-RA4],antimicrobial
19,GLFTLIKGAAKLIGKTTAKEAGKTGKLEMACKITNQC [Esculentin-2-OA2],antimicrobial
20,GLFSKFAGKGIKNFLNKGVKHIGKE [Esculentin-1-OA6],antimicrobial
21,VVKCSYRLGSPDSQCN [Odorranain-A-RA7],antimicrobial
22,GVLATVKNLLIGTGDGAAQSVLKTLSCKLSNDC [Brevinin-2-OA6],antimicrobial

# Same assay, conditions: annotation in words; ref [4]; cited from earlier work
row,Substance,Functional effect
1,VAIYGRDDRSDVCRQVQHNWLVCDTY [Andersonin-M3],immunomodulating
2,GLLSGINAEWPC [OA-GL12],wound-healing
3,VVKFSYRKGSPAPQKN [Odorranain-A-OA12],immunomodulating
4,ENMFNIKSSVESDSFWG [Andersonin-N1],"Insulin-Releasing, immunomodulating"
5,TSRCIFYRRKKCS [Andersonin-G],"antimicrobial,Insulin-Releasing"
6,FIFPKKNIINSLFGR [Andersonin-I1],"antimicrobial, Insulin-Releasing, immunomodulating"
7,QMFHLWYLRHMKNKKPMA [Andersonin-X],"Insulin-Releasing, immunomodulating"

# Tested on: not given
# Settings: previously reported ESPs in Odorrana grahami, Table S1; cited from earlier work
# Excerpt: (§1) Supplement 12915_2025_2463_MOESM1_ESM.xlsx, sheet "Table S1" | column: Previously reported ESPs in Odorrana grahami
Substance,Functional effect: myotropic activities,Functional effect: lectin
DDTEDLANKFIGLM [tachykinin_OG1],myotropic activities,
QSTYRAPQWAVGHLM [odorranain-BLP-2],myotropic activities,
QNTYRAPQWAVGHLM [odorranain-BLP-5],myotropic activities,
RPPGFTPFR [Thr6-bradykinin],myotropic activities,
QRECRAPHWAIGHFM [odorranain-BLP-1],myotropic activities,
DDASDRAKKFYGLM [ranamargarin],myotropic activities,
YASPKCFRYPNGVLACT [odorranalectin],,lectin
RPPGLTPFR [Leu5Thr6-bradykinin],myotropic activities,
QREYRAPHWAIGHFM [odorranain-BLP-4],myotropic activities,
RPPGFSPFR [bradykinin],myotropic activities,
QREYRTPHWAIGHFM [odorranain-BLP-3],myotropic activities,

# Same assay, conditions: previously reported ESPs in Odorrana grahami, Table S1; discovered in brain only; cited from earlier work
row,Substance,Functional effect: opioid peptide
1,DYTIRTRLHQESSRKVL [odorranaopin],opioid peptide discovered in brain ONLY

# Tested on: NO release
# Settings: previously reported ESPs in Odorrana grahami, Table S1; cited from earlier work
# Excerpt: as §1
row,Substance,Functional effect: inhibits NO release
1,"GLFGKILGVGKKVLCGLSGMC (disulfide 15-21 (inferred)) [nigrocin-2GRb, FSAP family mature peptide identified via LC-MS/MS in O. grahami skin secretion]",inhibits NO release
2,GLGGAKKNFIIAANKTAPQSVKKTFSCKLYNG [odorranain-E1],inhibits NO release

# Tested on: trypsin
# Settings: previously reported ESPs in Odorrana grahami, Table S1; cited from earlier work
# Excerpt: as §1
row,Substance,Functional effect: trypsin inhibitor
1,AALKGCWTKSIPPKPCFGKR [odorranain-B1],trypsin inhibitor
2,"AVNIPFKVHFRCKAAFC (disulfide 12-17 (inferred)) [OGTI, FSAP family mature peptide identified via LC-MS/MS in O. grahami skin secretion]",trypsin inhibitor
